Measured values taken from patent publication US10568892B2, “Cycloartane tetracyclic triterpenoid compound, preparation method therefor and use thereof” (Hefei Cosource Pharmaceuticals Inc., priority 2016, dated 2020).

Test system: SD rats
Assay: Rat myocardial ischemia model with coronary artery ligation and reperfusion (arrhythmia incidence)
Format: in vivo
Settings: for Death (%) / Death n / Ventricular fibrillation (%) / Ventricular fibrillation n / Ventricular premature beat (%) / Ventricular premature beat n / Ventricular tachycardia (%) / Ventricular tachycardia n: injection (sublingually) 5 min before ischemia
From the text: Method: SD rats were anesthetized with pentobarbital, and a cervical midline incision was made to separate and cut off the trachea such that it was connected to a respirator. The skin was cut along the midline of the left clavicle of the rat, and the chest was opened between the left third and fourth ribs to gently squeeze out the heart. The pericardium was opened, the needle was inserted at the left edge of the pulmonary artery cone and 2 mm at the lower edge of the left atrial appendage. The 6-0 non-invasive suture was threaded through the superficial myocardium, with the left anterior descending coronary artery (LAD) located thereon. After stabilization for 5 min, a double-layer plastic cannula was put on, and the cable tie was tighten to complete the myocardial ischemia induced by left coronary artery occlusion. The criterion for myocardial ischemia is the occurrence of myocardial infarction (St-segment ran up or T-wave was shown as high sharp wave) in the electrocardiogram and the presence of local cyanosis in the heart. After 5 min of myocardial ischemia, the inner cannula was withdrawn, that is, the wire knot was released for reperfusion, and the electrocardiogram of reperfusion in the rat was recorded.
The administration was performed at 5 min before the ischemia by coronary artery ligation, and the administration mode was injection administration (sublingually).

SMILES: CN[C@H]1CC[C@]23C[C@]24CC[C@]2(C)C(C(C)=O)=CC[C@@]2(C)[C@@H]4CC[C@H]3C1(C)C [Compound 369, (3β,5α)-4,4,14-trimethyl-3-(methylamino)-9,19-cyclopregnan-16-en-20-one]
- Death (%) (1 mg/kg): 38%
- Death n (1 mg/kg): 3
- Ventricular fibrillation (%) (1 mg/kg): 63%
- Ventricular fibrillation n (1 mg/kg): 5
- Ventricular premature beat (%) (1 mg/kg): 100%
- Ventricular premature beat n (1 mg/kg): 8
- Ventricular tachycardia (%) (1 mg/kg): 100%
- Ventricular tachycardia n (1 mg/kg): 8
- Death (%) (10 mg/kg): 0 (0) %
- Death n (10 mg/kg): 0 (0)
- Ventricular fibrillation (%) (10 mg/kg): 14%
- Ventricular fibrillation n (10 mg/kg): 1
- Ventricular premature beat (%) (10 mg/kg): 86%
- Ventricular premature beat n (10 mg/kg): 6
- Ventricular tachycardia (%) (10 mg/kg): 71%
- Ventricular tachycardia n (10 mg/kg): 5
- Death (%) (30 mg/kg): 0 (0) %
- Death n (30 mg/kg): 0 (0)
- Ventricular fibrillation (%) (30 mg/kg): 0 (0) %
- Ventricular fibrillation n (30 mg/kg): 0 (0)
- Ventricular premature beat (%) (30 mg/kg): 83%
- Ventricular premature beat n (30 mg/kg): 5
- Ventricular tachycardia (%) (30 mg/kg): 17%
- Ventricular tachycardia n (30 mg/kg): 1
- Numbers of animals (incidences) with ventricular premature beat, ventricular tachycardia, ventricular fibrillation, and death vs vehicle (in words) (1 to 30 mg/kg, dose-response relationship): lower
